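Each compound was tested at five concentrations against cells in 96-well plates for 48 hours. Here, GI50 denotes the concentration required for 50% inhibition of growth. TGI: concentration producing complete growth inhibition.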
Columns and labels:
Assay in all cases: growth of human tumour cells (NCI), 48 h
A498 renal = test system: A498 renal
COLO 205 colon = test system: COLO 205 colon
HOP-62 NSCLC = test system: HOP-62 NSCLC
NCI/ADR-RES ovarian = test system: NCI/ADR-RES ovarian
OVCAR-4 ovarian = test system: OVCAR-4 ovarian
SF-268 CNS = test system: SF-268 CNS
SF-295 CNS = test system: SF-295 CNS
SK-MEL-5 melanoma = test system: SK-MEL-5 melanoma
SK-OV-3 ovarian = test system: SK-OV-3 ovarian
UO-31 renal = test system: UO-31 renal

SMILES | TGI (A498 renal) [µM] | TGI (COLO 205 colon) [µM] | TGI (HOP-62 NSCLC) [µM] | TGI (NCI/ADR-RES ovarian) [µM] | TGI (OVCAR-4 ovarian) [µM] | TGI (SF-268 CNS) [µM] | TGI (SF-295 CNS) [µM] | TGI (SK-MEL-5 melanoma) [µM] | TGI (SK-OV-3 ovarian) [µM] | TGI (UO-31 renal) [µM] | GI50 (A498 renal) [µM] | GI50 (COLO 205 colon) [µM] | GI50 (HOP-62 NSCLC) [µM] | GI50 (NCI/ADR-RES ovarian) [µM] | GI50 (OVCAR-4 ovarian) [µM] | GI50 (SF-268 CNS) [µM] | GI50 (SF-295 CNS) [µM] | GI50 (SK-MEL-5 melanoma) [µM] | GI50 (SK-OV-3 ovarian) [µM] | GI50 (UO-31 renal) [µM]
COc1cccc(C2CC(C)(O)Oc3cc4c(cc32)OCO4)c1O (stereo not drawn) | > 100 | 41.3 | 79.7 | 59.3 | > 100 | > 91.2 | 64.9 | > 61.3 | > 100 | 97.9 | – | – | – | – | – | – | – | – | – | –
Oc1ccc(Nc2ncnc3c2sc2ncccc23)cc1 | 1.93 | – | – | > 35.2 | > 100 | > 100 | > 100 | > 100 | > 40.2 | 5.02 | 0.0236 | 0.0726 | 0.0175 | 0.0286 | > 88.7 | 0.0407 | 0.0389 | 0.047 | 0.168 | 0.0241
COc1ccc(OC)c2c1[nH]c(=O)c1c3ccccc3cn21 | 3.2 | 2.79 | 3.18 | 3.38 | 3.1 | 3.04 | 2.7 | 2.93 | 2.97 | 2.38 | 1.77 | 1.2 | 1.52 | 1.5 | 1.38 | 1.42 | 1.25 | 1.53 | 1.47 | 1.11
CCCCC#CC1=C(Br)C(=O)OC1 | 33.5 | > 22.2 | 20.8 | 5.9 | 11.3 | 10.2 | 28.2 | 0.366 | > 77.2 | 3.1 | 18.1 | 2.66 | 7.13 | 2.04 | 3.99 | 2.47 | 6.2 | 0.118 | 36.1 | 1.37
Nc1ccc([N+](=O)[O-])cc1N=C/C=C/c1ccccc1 | 64.4 | > 100 | > 100 | > 100 | 90.2 | 40.6 | > 100 | 48.8 | > 100 | 71.4 | 15.1 | 23 | 42.5 | 7.84 | 11.2 | 5.91 | 21.7 | 10.7 | 26.5 | 4.31

Source: PubChem BioAssay (NCI)
